Two compounds from article PMC5816668, “Insights into the inhibitory mechanisms of NADH on the αγ heterodimer of human NAD-dependent isocitrate dehydrogenase” (Scientific Reports, 2018) can be followed below.

A word on the IC50: it is the concentration at which inhibition is half-maximal. Higher therefore signals weaker potency in that assay.

Molecules are shown by their SMILES. Like-named read-outs stand apart in the source and are kept apart here.

Experiment [1] addresses T1, αβ heterodimer of human NAD-IDH (Homo sapiens, UniProt P50213).
T1 construct: gene IDH3A; alpha 37 kDa, beta 39 kDa; heterodimer
Nature of the experiment: ITC. Format: binding. The conditions noted are these: 50 mM HEPES pH 7.4, 200 mM NaCl, 20 °C, read-out: K d (μ M) ^a. An excerpt:
ITC on αβ heterodimer of human NAD-IDH

The target in experiment [2] is T2, α2βγ heterotetramer of human NAD-IDH (Homo sapiens, UniProt P50213+P51553).
T2 construct: gene IDH3A; alpha 37 kDa, beta 39 kDa, gamma 39 kDa
T2 sequence (O43837 35-385 partner, one chain of several): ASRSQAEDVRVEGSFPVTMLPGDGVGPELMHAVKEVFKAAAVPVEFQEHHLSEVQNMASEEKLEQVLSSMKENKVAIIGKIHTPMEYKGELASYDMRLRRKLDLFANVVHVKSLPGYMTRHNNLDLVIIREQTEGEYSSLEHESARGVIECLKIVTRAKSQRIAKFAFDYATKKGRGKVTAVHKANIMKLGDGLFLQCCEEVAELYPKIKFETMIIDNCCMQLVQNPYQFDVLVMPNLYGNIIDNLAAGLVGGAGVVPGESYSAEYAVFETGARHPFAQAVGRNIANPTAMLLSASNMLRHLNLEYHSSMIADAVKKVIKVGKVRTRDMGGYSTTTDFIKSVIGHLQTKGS
Put plainly: ITC. In kind it is binding. The conditions noted are these: 50 mM HEPES pH 7.4, 200 mM NaCl, 20 °C; single set of sites fit, n 2.53; read-out: K d (μ M) ^a. An excerpt:
ITC on α2βγ heterotetramer of human NAD-IDH

Experiment [3] addresses T2, α2βγ heterotetramer of human NAD-IDH. Put plainly: NADH formation at […] nm. In kind it is biochemical. The conditions noted are these: 33 mM Tris-acetate pH 7.4, 2 mM MnCl2, 20 mM DL-isocitrate, 1 mM NAD+, 25 °C.
Experiment [4] has as its target T3, αγ heterodimer of human NAD-IDH (Homo sapiens, UniProt P50213+P51553).
T3 construct: gene IDH3A; E. coli BL21(DE3) Codon-Plus co-expression from pQlinkN-α-γ-tev-His6; C-terminal His6 of gamma cut with TEV protease; alpha 37 kDa, gamma 39 kDa; heterodimer
T3 sequence (P50213 28-366): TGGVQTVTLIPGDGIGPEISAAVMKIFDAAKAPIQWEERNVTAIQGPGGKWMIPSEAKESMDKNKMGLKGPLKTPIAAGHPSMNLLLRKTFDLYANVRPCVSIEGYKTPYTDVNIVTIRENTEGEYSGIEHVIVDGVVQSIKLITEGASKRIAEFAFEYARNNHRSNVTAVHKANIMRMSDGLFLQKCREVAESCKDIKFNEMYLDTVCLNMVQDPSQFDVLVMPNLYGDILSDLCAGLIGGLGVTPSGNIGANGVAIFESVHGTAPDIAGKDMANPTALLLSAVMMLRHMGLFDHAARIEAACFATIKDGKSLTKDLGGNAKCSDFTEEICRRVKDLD
T3 sequence (P51553 40-393): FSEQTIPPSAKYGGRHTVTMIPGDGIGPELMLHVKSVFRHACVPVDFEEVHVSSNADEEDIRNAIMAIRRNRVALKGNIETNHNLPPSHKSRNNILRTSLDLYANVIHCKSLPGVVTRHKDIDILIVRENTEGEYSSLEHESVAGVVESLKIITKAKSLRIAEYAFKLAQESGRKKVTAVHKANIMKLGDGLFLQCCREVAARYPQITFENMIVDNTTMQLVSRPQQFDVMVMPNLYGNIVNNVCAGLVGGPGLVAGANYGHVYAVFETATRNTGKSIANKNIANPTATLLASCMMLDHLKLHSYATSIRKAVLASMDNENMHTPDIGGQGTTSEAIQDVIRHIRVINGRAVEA
Nature of the experiment: NADH formation at […] nm. In kind it is biochemical.

Experiment [5] concerns the target T1, αβ heterodimer of human NAD-IDH. Nature of the experiment: NADH formation at […] nm. The conditions noted are these: 33 mM Tris-acetate pH 7.4, 20 mM DL-isocitrate, 1 mM NAD+, 25 °C. In kind it is biochemical.
Experiment [6] has as its target T3, αγ heterodimer of human NAD-IDH. Put plainly: ITC. In kind it is binding. The conditions noted are these: read-out: K d (μ M) ^a. An excerpt:
ITC on αγ heterodimer of human NAD-IDH

T1 sequence (O43837 35-385 partner, one chain of several): as the sequence (O43837 35-385 partner, one chain of several) above

Turning to `NC(=O)C1=CN([C@@H]2O[C@H](COP(=O)(O)OP(=O)(O)OC[C@H]3O[C@@H](n4cnc5c(N)ncnc54)[C@H](O)[C@@H]3O)[C@@H](O)[C@H]2O)C=CC1` [NADH], the Kd in experiment [1] (single set of sites fit, n 1.26) came to 4.6 ± 0.7 µM; in experiment [2], 46.3 ± 6.5 µM; in experiment [6], 109 ± 19.5 µM. For the same compound, the results for the IC50 in experiment [3], in experiment [4] and in experiment [5] were 78.5 ± 5.4 µM, 82.7 ± 6 µM and 94.9 ± 7.8 µM, respectively.

Take `NC(=O)c1ccc[n+]([C@@H]2O[C@H](COP(=O)(O)OP(=O)(O)OC[C@H]3O[C@@H](n4cnc5c(N)ncnc54)[C@H](O)[C@@H]3O)[C@@H](O)[C@H]2O)c1` [NAD^+]: in experiment [1] (no isocitrate, n 1.14), the Kd amounted to 268 ± 28.4 µM.
